Experimental data reported in patent US12329738B2, “Urolithin A and a composition containing same for external use in inflammations of various etiologies” (WARSZAWSKI UNIWERSYTET MEDYCZNY, priority 2018, dated 2025).

Columns and labels:
[1] = test system: S100A8/A9 protein (calprotectin); test: Extracellular S100A8/A9 level, LPS-stimulated human neutrophils (ELISA); assay type: cell-based; details: 40, 10 and 1 μM; LPS 10 ng/mL; 30 min; concentration dependent
Protocol: In order to comparatively study the biological activity of urolithins and their derivatives, these compounds were obtained by chemical synthesis, and then their activity against release of calprotectin by stimulated neutrophils was examined. Peripheral blood was collected from healthy donors (aged 20-35) at the Regional Blood Donation and Blood Treatment Center (Regionalne Centrum Krwiodawstwa i Krwiolecznictwa) in Warsaw. The study was conducted in accordance with the principles of the Declaration of Helsinki. […] Neutrophils were isolated using a standard method (Piwowarski et al., 2014a). Neutrophils were then suspended in HBSS. 50 μL of urolithin A, urolithin B or iso-urolitin A at the appropriate concentration (to achieve final concentrations of 40, 10 and 1 μM) and 10 μL of LPS solution (final concentration of 10 ng/mL) were added to 440 μl of cell suspension (3×10^5 cells/mL). Cells were incubated at 37° C. for 30 min, then centrifuged at 4° C., 400 rcf for 10 min. The experiment was carried out on blood samples taken from 4 different donors in duplicates. The effect of urolithins on the production of S100A8/A9 was determined using the immunochemical ELISA method (R&D Systems).
The obtained results of experiments on in vitro models were analyzed using the Statistica 13 program (StatSoft, Inc., Tulsa, OK, USA) and presented as mean values±SEM. […]

[2] = test system: TNF-alpha; test: TNF-alpha production by THP-1 derived macrophages (ELISA); assay type: cell-based, human; details: 40 μM; LPS stimulation; FIG. 13
Protocol: Monocytes of the THP-1 line were cultured in RPMI 1640 medium supplemented with 10% FBS and 2 mM glutamine. For transformation of monocytes into macrophages, the cells were treated with 12.5 ng/mL PMA (phorbol 12-myristate 13-acetate) for 48 hours, then washed and incubated for 24 hours in a culture medium without PMA. After this time, urolithin A, urolithin B, iso-urolithin A and the corresponding glucuronides (GUA, GUB and GiUA) were added to the cells at a concentration of 40 μM. After 1 hour of incubation with the compounds, the cells were stimulated with LPS from Escherichia coli (10 ng/mL).
To assess the level of TNF-alpha production, the cells were incubated for 6 hours, to assess the expression of mRNA for TNF-alpha, the cells were incubated for 24 hours, to assess the effect on ERK1/2 phosphorylation, the cells were incubated for 35 minutes.
The level of TNF-alpha in the culture medium was determined using the immunochemical ELISA method (BD biosciences). Evaluation of the expression of mRNA for TNF-alpha was performed using real time PCR. After 24 hours of incubation, RNA was isolated using NucleoSpin RNA Clean-up (Macherey-Nagel). The amount and quality of isolated RNA was determined using 2100 Bioanalyzer (Agilent Technologies). The expression level of mRNA for TNF-α was determined using Brilliant II SYBR Green QPCR Kit and Aria Mx Real-Time PCR thermocycler (Agilent Technologies). The following were used as primers for TNF-alpha: forward: 5′-[…]-3′, reverse: 5′-[…]-3′. Beta-actin (ACTB) was used as the housekeeping gene; primer forward: 5′-[…]-3′, reverse: 5′-[…]-3′).
The obtained results of experiments on in vitro models were analyzed using the Statistica 13 program (StatSoft, Inc., Tulsa, OK, USA) and presented as mean values±SEM. Statistical significance was set at P≤0.05. The results with established normal distribution in the D'Agostin and Pearson test were prepared using analysis of variance (ANOVA). Parametric post-hoc analysis was performed using Dunnett's test.

[3] = following ingestion of food products rich in ellagitannins; cited from earlier work
[4] = test system: Wistar rats (DNCB-induced atopic dermatitis); test: Pruritus level (scratch reflexes) in DNCB-induced atopic dermatitis rat model; assay type: in vivo
Protocol: Wistar rats aged 5-6 weeks (at the start of the experiment) kept under standard conditions with free access to feed and water were used for the tests. The animals were divided into 5 groups, 8 individuals in each group. To prepare 2,4-dinitrochlorobenzene (DNCB) composition inducing inflammation, DNCB was dissolved in 70% ethanol to a final concentration of 1.5% (w/v). Therapeutic composition was an ointment based on white petrolatum with 0.2% or 1.0% urolithin A added. The control ointment was white petrolatum without addition of urolithin A. The induction of chronic atopic dermatitis involved local 9-fold infiltration with 60 μl 1.5% 2,4-dinitrochlorobenzene (DNCB) on each (external and internal) surface of the right ear over 3 weeks (3 times a week). Negative control was the right ear of rats without induction inflammation. Treatment of atopic dermatitis with 0.2% or 1.0% urolithin composition and white petrolatum (control) or 1.0% hydrocortisone composition (positive control) was started eight days after sensitization—one day before the fourth application of DNCB. Ointments with appropriate for given group drug added were applied in a total volume of about 20 μl to each ear surface one day before and 6 hours after each DNCB application (for a period of 3 weeks). The negative control group consisted of rats without induced inflammation and treated with white petrolatum in a regimen analogous to the composition of urolithin A or hydrocortisone. Measurement of pruritus level (as measured by scratching reflexes) was evaluated as the total frequency of scratch reflexes during 10 minutes immediately after DNCB application on days 0, 4, 8, 12, 16, 20, 24, 28 and 32 of the experiment). Scratching was defined as a single or series of several reflexes of scratching with a paw directed at the site of DNCB application. The experimental results obtained were analyzed using the Statistica 7.1 program (StatSoft, Inc., Tulsa, OK, USA) and presented as mean values±SE. Statistical significance was set at P≤0.05. The results with established normal distribution in the D'Agostin and Pearson test were prepared using two- or three-factor analysis of variance (ANOVA). Parametric post-hoc analysis for individual time points was performed using the Bonferroni test.

For `O=c1oc2cc(O)ccc2c2ccc(O)cc12` [urolithin A], the “Extracellular level of S100A8/A9 protein (calprotectin)” value [1] is listed as “significant decrease”, the “TNF-alpha production by THP-1 derived macrophages” value [2] is listed as “inhibition of pro-inflammatory cytokine TNF-alpha production” and the “Concentration in feces, tissues, blood and urine” value [3] is listed as no more than 100 µM. The “Inhibition of scratching reflexes, comparison of urolithin doses with each other” value ([4]; 0.2% vs 1%, p<0.05) was “more effective at a concentration of 1%”, the “Reduction in scratching rate, urolithin vs. hydrocortisone” value ([4]; overall effect, p<0.05) was “stronger” and the “Scratching rate (frequency of scratch reflexes)” value ([4]; topical ointment, urolithin A 0.2 and 1.0% (p<0.001), hydrocortisone 1% (p<0.01)) was “reduction in scratching rate”. For the same compound, the “Inhibition of scratching reflexes compared to hydrocortisone 1%” value ([4]; urolithin A 0.2% ointment, p=0.39) was “absence of significantly greater efficiency” and the “Inhibition of scratching reflexes compared to hydrocortisone 1%” value ([4]; urolithin A 1% ointment, p<0.05) was “significantly greater inhibition of scratching reflexes compared to hydrocortisone”.
